US20140107109A1, “AMINO-DIHYDROTHIAZINE AND AMINO-DIOXIDO DIHYDROTHIAZINE COMPOUNDS AS BETA-SECRETASE ANTAGONISTS AND METHODS OF USE” (Amgen Inc., priority 2012, published 2014)
Like-named read-outs stand apart in the source and are kept apart here.

How the values were obtained:
[1] = system: Aβ40 in conditioned medium of cells stably expressing Amyloid Precursor Protein (APP); experiment: In vitro BACE cell-based assay (HEK cell assay), Aβ40 sandwich ELISA; conditions: Homo sapiens, HEK293
Procedure, shortened: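 Aβ40 in conditioned medium was quantified by time-resolved fluorescence sandwich ELISA (pAb40 capture 3 h at 4 °C, biotin-6E10 detection 2 h at 4 °C) after 24 h compound exposure of APP-expressing cells. Doses spanned 10 points from 100 μM or 10 μM top, 0.1% DMSO; IC50 was derived from percent of control.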

[2] = biological target: T1, Cathepsin D (Cat D) (Homo sapiens, UniProt P07339); experiment: In vitro enzymatic Cathepsin D (Cat D) FRET assay; type: biochemical; conditions: read-out: CatD IC50
T1 construct: Recombinant Cat D was expressed in CHO cells; made in house; host or cells: CHO cells
Procedure, shortened: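 FRET read-out: a fluorophore/quencher-labelled peptide substrate is cleaved by 9 nM Cat D (recombinant, CHO-expressed) following a one-hour preincubation with inhibitor dilutions in DMSO. Tris buffer added to neutralize pH ends the reaction before fluorescence measurement.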

[3] = biological target: Beta Secretase enzyme (BACE1) (Homo sapiens, UniProt P56817); experiment: In vitro enzymatic BACE FRET assay; type: biochemical; conditions: read-out: BACE1 FRET assay IC50
Procedure, shortened: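 Readout: dequenched fluorescence (ex 488 nm/[…]) after neutralizing with Tris buffer. Reactions, begun by adding 50 nM quenched peptide substrate spanning the BACE cleavage site, were incubated one hour at pH 4.2 in 0.05 M acetate with 100 uM genapol and 10% final DMSO.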

Chain of Beta Secretase enzyme (BACE1) (P56817 46-501): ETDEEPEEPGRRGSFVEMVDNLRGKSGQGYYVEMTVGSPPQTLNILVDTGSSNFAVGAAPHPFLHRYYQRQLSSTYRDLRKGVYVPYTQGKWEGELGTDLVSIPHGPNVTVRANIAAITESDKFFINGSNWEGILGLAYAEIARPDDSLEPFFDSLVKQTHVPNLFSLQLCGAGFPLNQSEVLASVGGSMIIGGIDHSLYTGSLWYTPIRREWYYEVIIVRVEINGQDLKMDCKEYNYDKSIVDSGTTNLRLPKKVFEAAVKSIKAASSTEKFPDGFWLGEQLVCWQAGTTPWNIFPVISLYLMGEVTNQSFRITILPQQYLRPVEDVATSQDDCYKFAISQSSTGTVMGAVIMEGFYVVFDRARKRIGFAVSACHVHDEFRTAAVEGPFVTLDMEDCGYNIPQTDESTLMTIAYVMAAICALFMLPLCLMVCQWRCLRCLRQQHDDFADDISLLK
T1 sequence (P07339 65-412, species assumed): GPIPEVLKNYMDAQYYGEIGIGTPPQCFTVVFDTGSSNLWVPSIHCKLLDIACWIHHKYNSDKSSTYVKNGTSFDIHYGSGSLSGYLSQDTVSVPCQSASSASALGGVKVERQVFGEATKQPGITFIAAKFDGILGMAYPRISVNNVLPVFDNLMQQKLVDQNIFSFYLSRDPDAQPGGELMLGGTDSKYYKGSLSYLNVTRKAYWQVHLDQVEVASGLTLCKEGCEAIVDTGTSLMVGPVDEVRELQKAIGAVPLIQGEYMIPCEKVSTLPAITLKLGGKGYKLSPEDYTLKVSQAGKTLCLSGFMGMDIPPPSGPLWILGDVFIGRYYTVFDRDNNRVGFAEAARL

Row | Compound | IC50 ([1]; Aβ40, 24 h incubation) | IC50 [2] | IC50 [3] | IC50 ([1]; average IC50, cell assay) | IC50 ([3]; average IC50, enzyme assay) | IC50 [1]
1 | CC1(C)C(N)=N[C@](C)(c2cc(Nc3csc4cc(C#N)cnc34)ccc2F)CS1(=O)=O [Example 73, (R)-3-((3-(5-Amino-3,6,6-trimethyl-1,1-dioxido-3,6-dihydro-2H-1,4-thiazin-3-yl)-4-fluorophenyl)amino)thieno[3,2-b]pyridine-6-carbonitrile] | 0.0016 µM | 27.3 µM | 0.002 µM |  |  | 
2 | COc1cnc2c(Nc3ccc(F)c([C@]4(C)CS(=O)(=O)[C@@](C)(F)C(N)=N4)c3)nccc2c1 [Example 74, (3R,6R)-5-Amino-6-fluoro-3-(2-fluorophenyl-5-((3-methoxy-1,7-naphthyridin-8-yl)amino)phenyl)-3,6-dimethyl-3,6-dihydro-2H-1,4-thiazine 1,1-dioxide] | 0.102 µM | > 400 µM | 0.0137 µM |  |  | 
3 | COc1cnc2c(Nc3ccc(F)c([C@]4(C)CS(=O)(=O)C(C)(C)C(N)=N4)c3)cccc2n1 [Example 75, (R)-5-Amino-3-(2-fluoro-5-((2-methoxyquinoxalin-5-yl)amino)phenyl)-3,6,6-trimethyl-3,6-dihydro-2H-1,4-thiazine 1,1-dioxide] | 0.212 µM | 47.6 µM | 0.0114 µM |  |  | 
4 | CC1(C)C(N)=N[C@](C)(c2cc(Nc3ncc(F)c4cc(C#N)cnc34)ccc2F)CS1(=O)=O [Example 76, (R)-8-((3-(5-Amino-3,6,6-trimethyl-1,1-dioxido-3,6-dihydro-2H-1,4-thiazin-3-yl)-4-fluorophenyl)amino)-5-fluoro-1,7-naphthyridine-3-carbonitrile] | 0.0039 µM | > 44 µM | 0.002 µM |  |  | 
5 | CC1(C)C(N)=N[C@@](C)(c2cc(Nc3noc4cc(Cl)cnc34)ccc2F)CS1(=O)=O [Example 78, (S)-5-Amino-3-(5-((6-chloroisoxazolo[4,5-b]pyridin-3-yl)amino)-2-fluorophenyl)-3,6,6-trimethyl-3,6-dihydro-2H-1,4-thiazine 1,1-dioxide] | 0.0944 µM | 45.6 µM | 0.0138 µM |  |  | 
6 | CC1(C)C(N)=N[C@](C)(c2cc(Sc3cccc4ccccc34)ccc2F)CS1(=O)=O [Example 79, (R)-5-Amino-3-(2-fluoro-5-(naphthalen-1-ylthio)phenyl)-3,6,6-trimethyl-3,6-dihydro-2H-1,4-thiazine 1,1-dioxide] | 4.94 µM | 33.7 µM | 2.5 µM |  |  | 
7 | COc1cnc(C(=O)Nc2ccc(F)c([C@]3(C)CS(=O)(=O)C(C)C(N)=N3)c2)cn1 (stereo partly drawn) [Example 82, N-(3-((3R)-5-Amino-3,6-dimethyl-1,1-dioxido-3,6-dihydro-2H-1,4-thiazin-3-yl)-4-fluorophenyl)-5-methoxypyrazine-2-carboxamide] | 0.0125 µM | > 400 µM | 0.0075 µM |  |  | 
8 | COc1cnc2c(Nc3ccc(F)c([C@]4(C)CS(=O)(=O)C5(CCCC5)C(N)=N4)c3)nccc2c1 [Example 84, (R)-10-Amino-8-(2-fluoro-5-((3-methoxy-1,7-naphthyridin-8-yl)amino)phenyl)-8-methyl-6-thia-9-azaspiro[4.5]dec-9-ene 6,6-dioxide] | 0.0575 µM | 283 µM | 0.0234 µM |  |  | 
9 | COc1cnc2c(Nc3ccc(F)c([C@]4(C)CS(=O)(=O)C5(CC5)C(N)=N4)c3)nccc2c1 [Example 86, (R)-8-Amino-6-(2-fluoro-5-((3-methoxy-1,7-naphthyridin-8-yl)amino)phenyl)-6-methyl-4-thia-7-azaspiro[2.5]oct-7-ene 4,4-dioxide] | 0.0082 µM | 160 µM | 0.0136 µM |  |  | 
10 | CC1(C)C(N)=N[C@](C)(c2cc(Oc3ccc(C#N)cc3)ccc2F)CS1(=O)=O [Example 96, (R)-4-(3-(5-amino-3,6,6-trimethyl-1,1-dioxido-3,6-dihydro-2H-1,4-thiazin-3-yl)-4-fluorophenoxy)benzonitrile] | 6.02 µM | 58.7 µM | 1.8 µM |  |  | 
11 | CC1(C)C(N)=N[C@](C)(c2cc(Oc3cc(F)cc(C(F)(F)F)c3)ccc2F)CS1(=O)=O [Example 98, (R)-5-amino-3-(2-fluoro-5-(3-fluoro-5-(trifluoromethyl)phenoxy)phenyl)-3,6,6-trimethyl-3,6-dihydro-2H-1,4-thiazine 1,1-dioxide] | 5.04 µM | 56.3 µM | 0.135 µM |  |  | 
12 | CCc1cccc(Oc2ccc(F)c([C@]3(C)CS(=O)(=O)C(C)(C)C(N)=N3)c2)c1 [Example 99, (R)-5-amino-3-(5-(3-ethylphenoxy)-2-fluorophenyl)-3,6,6-trimethyl-3,6-dihydro-2H-1,4-thiazine 1,1-dioxide] | 6.68 µM | 86.8 µM | 1.43 µM |  |  | 
13 | CCc1cc(Oc2ccc(F)c([C@]3(C)CS(=O)(=O)C(C)(C)C(N)=N3)c2)ccc1Cl [Example 100, (R)-5-amino-3-(5-(4-chloro-3-ethylphenoxy)-2-fluorophenyl)-3,6,6-trimethyl-3,6-dihydro-2H-1,4-thiazine 1,1-dioxide] | > 10 µM | 17.7 µM | 1.55 µM |  |  | 
14 | COc1ccc(C)cc1Oc1ccc(F)c([C@]2(C)CS(=O)(=O)C(C)(C)C(N)=N2)c1 [Example 101, (R)-5-amino-3-(2-fluoro-5-(2-methoxy-5-methylphenoxy)phenyl)-3,6,6-trimethyl-3,6-dihydro-2H-1,4-thiazine 1,1-dioxide] | > 10 µM | 194 µM | 15.2 µM |  |  | 
15 | CC1(C)C(N)=N[C@](C)(c2cc(Oc3ccc4ccccc4c3)ccc2F)CS1(=O)=O [Example 102, (R)-5-amino-3-(2-fluoro-5-(naphthalen-2-yloxy)phenyl)-3,6,6-trimethyl-3,6-dihydro-2H-1,4-thiazine 1,1-dioxide] | 8.04 µM | 51.2 µM | 2.35 µM |  |  | 
16 | CC1(C)C(N)=N[C@](C)(c2cc(Oc3ccccn3)ccc2F)CS1(=O)=O [Example 103, (R)-5-amino-3-(2-fluoro-5-(pyridin-2-yloxy)phenyl)-3,6,6-trimethyl-3,6-dihydro-2H-1,4-thiazine 1,1-dioxide] | 0.213 µM | 246 µM | 0.119 µM |  |  | 
17 | CC1(C)C(N)=N[C@](C)(c2cc(Nc3ncnc4cc(OCC5CC5)cnc34)ccc2F)CS1(=O)=O [Example 104, (R)-5-amino-3-(5-((7-(cyclopropylmethoxy)pyrido[3,2-d]pyrimidin-4-yl)amino)-2-fluorophenyl)-3,6,6-trimethyl-3,6-dihydro-2H-1,4-thiazine 1,1-dioxide] |  | 358 µM |  | 0.0052 µM | 0.00154 µM | 
18 | Cc1nc2c(Nc3ccc(F)c([C@]4(C)CS(=O)(=O)C(C)(C)C(N)=N4)c3)cccc2s1 [Example 105, (R)-5-amino-3-(2-fluoro-5-((2-methylbenzo[d]thiazol-4-yl)amino)phenyl)-3,6,6-trimethyl-3,6-dihydro-2H-1,4-thiazine 1,1-dioxide] |  | 145 µM |  | 0.742 µM | 0.184 µM | 
19 | CC1(C)C(N)=N[C@](C)(c2cc(NCc3nn(CC(F)(F)F)cc3Cl)ccc2F)CS1(=O)=O [Example 108, (R)-5-amino-3-(5-(((4-chloro-1-(2,2,2-trifluoroethyl)-1H-pyrazol-3-yl)methyl)amino)-2-fluorophenyl)-3,6,6-trimethyl-3,6-dihydro-2H-1,4-thiazine 1,1-dioxide] |  | 49.8 µM |  | 0.161 µM | 0.0452 µM | 
20 | CC1(C)C(N)=N[C@](C)(c2cc(NCc3c(Cl)cnn3CC(F)(F)F)ccc2F)CS1(=O)=O [Example 109, (R)-5-amino-3-(5-(((4-chloro-1-(2,2,2-trifluoroethyl)-1H-pyrazol-5-yl)methyl)amino)-2-fluorophenyl)-3,6,6-trimethyl-3,6-dihydro-2H-1,4-thiazine 1,1-dioxide] |  | 12.2 µM |  | 0.36 µM | 0.208 µM | 
21 | Cc1cnc(C(=O)Nc2ccc(F)c([C@]3(C)CS(=O)(=O)C(C)(C)C(N)=N3)c2)cn1 [Example 110, (R)—N-(3-(5-amino-3,6,6-trimethyl-1,1-dioxido-3,6-dihydro-2H-1,4-thiazin-3-yl)-4-fluorophenyl)-5-methylpyrazine-2-carboxamide] |  | 1840 µM | 0.0202 µM |  |  | 0.0144 µM
22 | Cc1cnc(C(=O)Nc2ccc(F)c([C@]3(C)CS(=O)(=O)C(C)(C)C(N)=N3)c2)c(C)n1 [Example 111, ®-N-(3-(5-amino-3,6,6-trimethyl-1,1-dioxido-3,6-dihydro-2H-1,4-thiazin-3-yl)-4-fluorophenyl)-3,5-dimethylpyrazine-2-carboxamide] |  | > 400 µM | 0.0182 µM |  |  | 0.0244 µM
23 | C[C@@]1(c2cc(Nc3nccc4cc(Cl)cnc34)ccc2F)CS(=O)(=O)C2(CCC2)C(N)=N1 [Example 116, (R)-9-amino-7-(5-((3-chloro-1,7-naphthyridin-8-yl)amino)-2-fluorophenyl)-7-methyl-5-thia-8-azaspiro[3.5]non-8-ene 5,5-dioxide] |  | 38.8 µM |  | 0.0263 µM | 0.00115 µM | 
24 | C[C@@]1(c2cc(Nc3nccc4cc(C#N)cnc34)ccc2F)CS(=O)(=O)C2(CCC2)C(N)=N1 [Example 117, (R)-8-((3-(9-amino-7-methyl-5,5-dioxido-5-thia-8-azaspiro[3.5]non-8-en-7-yl)-4-fluorophenyl)amino)-1,7-naphthyridine-3-carbonitrile] |  | 28.3 µM |  | 0.0051 µM | 0.00189 µM | 
